Laboratory results reported in US7098246B2, “Natural compounds and their derivatives for the prevention and treatment of cardiovascular, hepatic and renal diseases and for cosmetic applications” (Puleva Biotech, S.A., priority 2002, dated 2006).

What was measured:
[1] = Stability against forced oxidation at 120° C. in an oily food matrix (refined oil, Rancimat)
Method: This was done by measuring the remaining amount of each of the compounds when these were subjected to forced oxidation at 120° C. Oxidation was done by passing a dry air current (˜20 I/h) through an aliquot of the sample (4 ml) placed in a reactor heated to 120° C. using a Metrohm-Herisau A. G Rancimat apparatus.
The solutions of all the compounds were prepared in refined oil. A total of 5 mg of II were dissolved in 5 g of refined oil, and finally 0.5 g of this solution were dissolved in. 5 g of refined oil. Similarly, solutions III and VIII were prepared in refined oil. Aliquots of 0.3 ml were collected at different times for each solution and were stored at −20° C. […] After introducing the sample, 6 ml of hexane, 6 ml of hexane/ethyl acetate (9:1) and 10 ml of methanol were passed through it, and then the methanolic fraction was concentrated to 1 ml volume. […] Once again, the methanolic phase was concentrated to 1 ml volume for analysis.

[2] = Absorption of hydroxytyrosol and derivatives administered orally in mice (hydroxytyrosol in plasma); settings: oral, oily solution, equivalent amounts (10 mg II, 13 mg III, 70 mg IX)
Excerpt: Plasma was isolated from each blood sample by extraction with ethyl acetate and analysed by gas chromatography-mass spectometry.

[3] = Absorption of hydroxytyrosol administered orally in human volunteers; format: in vivo; settings: oral
Method: Pure hydroxytyrosol was obtained from olive leaves using standard extraction procedures compatible with the consumption of food products.
A 2.5 mg dose of hydroxytyrosol was administered per kg weight to 5 fasting healthy volunteers aged from 22–30 years who had not taken olive oil in their diet for at least two days before the study. Hydroxytyrosol dissolved in water was administered orally and afterwards blood samples were obtained at 0, 10, 20, 30, 60, 120 minutes. The plasma level of hydroxytyrosol and derived metabolites were determined by gas chromatography-mass spectometry using anthracene and napthol as internal standards.

SMILES	remaining amount of compound during forced oxidation ([1]; 120° C., dry air current, after 10 hours, RP-HPLC)	Hydroxytyrosol in plasma, 15 min. ([2]; 15 min)	Hydroxytyrosol in plasma, 60 min. ([2]; 60 min)	degradation state during forced oxidation ([1]; 120° C., after 10 hours)	stability against oxidation compared with hydroxytyrosol ([1]; forced oxidation at 120° C.)	time bioavailable after administration [3]	time of return of hydroxytyrosol plasma level to values similar to initial ones ([3]; 2.5 mg per kg weight in water)	time of maximum plasma level of hydroxytyrosol after administration ([3]; 2.5 mg per kg weight in water, fasting)
CCCCCCCCCCCCCCCCCCOc1ccc(CCO)cc1O [Compound VII, 2-(4-stearyloxy-3-hydroxyphenyl) ethanol]	50%	–	–	–	–	–	–	–
CC(=O)OCCc1ccc(O)c(O)c1 [III, 2-(3,4-dihydroxyphenyl) ethyl acetate]	–	0.68 mg/L	0.06 mg/L	completely degraded	takes longer to degrade than hydroxytyrosol (II)	–	–	–
OCCc1ccc(O)c(O)c1 [II, 2-(3,4-dihydroxyphenyl) ethanol]	–	–	–	completely degraded	–	at least 30 minutes	30 min	10 min
